Measured values from patent publication US20120146009A1, “NOVEL COMPOUND, FIELD-EFFECTIVE TRANSISTOR, SOLAR CELL, METHOD FOR PRODUCING SAID COMPOUND, FIELD-EFFECTIVE TRANSISTOR, AND SOLAR CELL, COMPOSITION FOR ORGANIC SEMICONDUCTOR LAYER, AND COMPOSITION FOR P-TYPE SEMICONDUCTOR LAYER” (Sharp Kabushiki Kaisha, priority 2009, published 2012).
Where two headings read alike, the source gives them in different places.

Legend:
[1] = Absorption spectrum in CH2Cl2; type: physicochemical
Protocol: (§1) An absorption spectrum (absorption peak wavelength λmax, molar absorbance coefficient c) of Compound 1 thus synthesized was measured. Further, a HOMO level (ionization potential) of Compound 1 was measured by photoelectric spectroscopy in the atmosphere (SC-2).
(§2) Note that, for the result of pentacene shown in Table 2, the absorption spectrum described in Reference Document 1 (J. Am. Chem. Soc. 2007, 129, 2225) was used, and the HOMO level described in Reference Document 2 (Jpn. J. Appl. Phys. 2005, 44, 561) was used.

[2] = HOMO level (ionization potential) by photoelectric spectroscopy in the atmosphere; type: physicochemical
Protocol: as §1, §2

[3] = Stability against aerial oxidation (absorption intensity of solution in air-saturated methylene chloride, dark place); type: physicochemical; details: immediately after preparation to 1 week
Protocol: Next, stability of Compound 1 against aerial oxidation was evaluated. A solution of Compound 1 was prepared with the use of air-saturated methylene chloride as a solvent, and was left in a dark place. The absorption spectrum was measured during a time period from immediately after the preparation to 1 week after the preparation, so as to trace how an absorption intensity of the solution of Compound 1 was changed during the above time period (see Reference Document 1 described above).

Solubility in solvent = type: physicochemical
[4] = Properties of the isolated crystal in the atmosphere; type: physicochemical; details: yellow crystal
Protocol: Into an anhydrous DMF (15 ml) solution of Intermediate 1 (0.42 g, 1.5 mmol), sodium hydride (60%, 0.13 g, 3.1 mmol) was added little by little. The resultant solution was left at room temperature for 2 hours. After that, 1-bromohexane (0.5 g, 3 mmol) was added to the solution, and the solution was agitated for further 2 hours. A solvent was removed away under reduced pressure, and a residue was extracted with methylene chloride. The residue from which the solvent was distilled away was recrystallized from hexane so that 0.28 g of Compound 1 was obtained (yield: 41%).

[5] = background statement; cited from earlier work
[6] = from Reference Document 1; cited from earlier work
[7] = from Reference Document 2; cited from earlier work
[8] = same condition, left for 24 hours, Reference Document 1; cited from earlier work

Compound: CCCCCCN1c2cc3ccccc3cc2N(CCCCCC)c2cc3ccccc3cc21 [Compound 1]
- Absorption spectrum λ max ([1]; in CH2CL2): 422 nm
- Absorption spectrum log ε ([1]; in CH2CL2, at λ max): (log ε = 4.58)
- Photoelectric spectroscopy HOMO [2]: −4.89 eV
- Change in absorption intensity of solution [3]: no change in absorption intensity
- Resolvability with respect to a solvent (Solubility in solvent): excellent resolvability
- Hydroscopic property [4]: no hydroscopic property
- Stability in the atmosphere [4]: stable compound without any deterioration in the atmosphere

Compound: c1ccc2cc3c(cc2c1)Nc1cc2ccccc2cc1N3 [DHDAP, dihydrodiazapentacene]
- Solubility [5]: low in solubility

Compound: c1ccc2cc3cc4cc5ccccc5cc4cc3cc2c1 [Pentacene, pentacene]
- Absorption spectrum λ max [6]: 575 nm
- Photoelectric spectroscopy HOMO [7]: −5.0 eV
- Change in absorption intensity of solution [8]: absorption intensity was substantially eliminated
